Patent US12509438B2, “Pyrazole derivative” (Aptabio Therapeutics Inc., priority 2020, dated 2025)

Tests used:
IL-1β [1] = assay: Expression of IL-1β induced by LPS in NHLF cells (RT-PCR); format: cell-based, human; settings: 30 min pretreatment, LPS 6 hours, FIG. 5
Protocol: (§1) After inoculating a 2×10^5 number of cells in a 6 well plate and culturing for 24 hours and then further culturing in a culture solution without serum for 16 hours, the Synthetic example 3 compound was pretreated according to each condition for 30 minutes and inflammation reaction was induced by LPS for 6 hours. The expression of IL-1β was confirmed by using RT-PCR. The total RNA was separated from the cells by using RNeasy mini kit (Qiagen) and from the separated RNA 2 ug, cDNA was synthesized by using PrimeScript™ II 1st strand cDNA synthesis kit (TaKaRa) and then PCR was performed by AccuPower® PCR PreMix (Bioneer) to amplify genes. The sequence for target primers is as follows. IL-1β (forward: 5′-[…]-3′, reverse: 5′-[…]-3′); GAPDH (forward: 5′-[…]-3′, reverse: 5′-[…]-3′); β-actin (forward: 5′-[…]-3′, reverse: 5′-[…]-3′). The PCR product was confirmed by electrophoresis in 1.5% agarose gel.

IL-1β [2] = assay: Expression of IL-1β induced by LPS in LX-2 cells (RT-PCR); format: cell-based, human; settings: 30 min pretreatment, LPS 6 hours, FIG. 5
Protocol: as §1

αSMA [3] = assay: Expression of αSMA induced by TGF-β1 in LX-2 cells (immunocytochemistry); format: cell-based, human; settings: compound 5 μM, TGF-β1 10 ng/ml, FIG. 3a/3b
Description: (§2) In order to confirm whether the synthetic example compound of the present invention affects differentiation of fibroblasts into myofibroblasts, the inhibitory effect of the synthetic example compound for increasing expression of αSMA (a biomarker for confirming differentiation into myofibroblasts) induced by TGF-β1 for HL-60 cells (Korean Cell Line Bank), HFF-1 (human foreskin fibroblast, ATCC), NHLF (normal human lung fibroblast, Lonza), LX-2 (human hepatic stellate cells, Sigma), ARPE19 (human retinal pigment epithelial cell, ATCC), KEL-FIB (Keloid fibroblast, ATCC) cells was to be observed.
(§3) Each cell was suspended in a DMEM medium comprising 10% FBS and aliquoted on a 4-well chamber slide (Nunc) at a concentration of 1×10^4 cells/well, and the synthetic example compound and TGF-β1(TGF 131, TGF-β are all same meanings) were treated to prepare cells to be used for confirmation of αSMA expression. […] After performing fixation with 4% paraformaldehyde for 10 minutes and permeabilization using 0.1% Triton x-100 for the cells, the process of treating a primary antibody (anti-αSMA Ab, 1:200, at 4° C. for 16 hours) and a secondary antibody (Alexa-594 conjugated Ab, 1:800, at a room temperature for 1 hour) against αSMA was progressed sequentially, and then the level of expression of αSMA was observed by using a fluorescence microscope.

CTGF gene = CTGF gene expression induced by TGF-β1 in KEL-FIB keloid fibroblasts (qRT-PCR); format: cell-based; settings: KEL-FIB cells; 5 μM or 10 μM compound; 2 ng/ml TGF-β1; 24 or 48 hours
Protocol: (§4) In order to confirm the effect on the process of producing extracellular matrix from keloid fibroblasts of the synthetic example compound, the expression change of an extracellular matrix formation promoting factor, CTGF and a representative extracellular matrix, collagen type I according to treatment of the Synthetic example 3 compound for KEL-FIB (keloid fibroblast) cells was analyzed at a gene level.
(§5) The KEL-FIB cell line was adapted in a DMEM comprising 2% FBS for 24 hours and then the Synthetic example 3 compound at a concentration of ? 5 μM or 10 μM was pretreated for 1 hour. For inducing expression of CTGF and collagen type I genes, 2 ng/ml TGF-β1 was treated and mRNA was extracted from the cells after 24 or 48 hours. The presence of mRNA and expression level of CTGF and collagen type 1 genes were confirmed by qRT-PCR (Quantitative real-time PCR).

αSMA [4] = assay: Expression of αSMA induced by TGF-β1 in NHLF cells (immunocytochemistry); format: cell-based, human; settings: compound 5 μM, TGF-β1 10 ng/ml, FIG. 3a/3b
Description: as §2, §3

collagen type I gene = assay: Collagen type I gene expression induced by TGF-β1 in KEL-FIB keloid fibroblasts (qRT-PCR); format: cell-based; settings: KEL-FIB cells; 5 μM or 10 μM compound; 2 ng/ml TGF-β1; 24 or 48 hours
Protocol: as §4, §5

αSMA [5] = assay: Expression of αSMA induced by TGF-β1 in KEL-FIB cells (immunocytochemistry); format: cell-based; settings: compound 5 μM, TGF-β1 10 ng/ml, FIG. 3a/3b
Description: as §2, §3

LX-2 cells = assay: ROS production in LX-2 cells (L-012 or DCF-DA); format: cell-based, human; settings: FIG. 1
Description: (§6) In order to confirm an effect of the synthetic example compounds on ROS production from fibroblasts and specific substrate cells, ROS production was induced by stimulation of PMA (phorbol 12-myristate 13-acetate), TGF-β1, palmitate or high concentration-glucose, or the like for HL-60 cells (Korean Cell Line Bank), NHLF(normal human lung fibroblast, Lonza), LX-2 (human hepatic stellate cells, Sigma), ARPE19 (human retinal pigment epithelial cell, ATCC), KEL-FIB (Keloid fibroblast, ATCC) cells differentiated into neutrophil cells by treatment of DMSO, and the inhibitory effect of ROS production of the synthetic example compounds was observed under this condition.
(§7) NHLF (normal human lung fibroblast, Lonza), LX-2 (human hepatic stellate cells, Sigma), ARPE19 (human retinal pigment epithelial cell, ATCC), KEL-FIB (keloid fibroblast, ATCC) cells were suspended in a culture medium comprising 10% FBS and aliquoted in a 96 well plate, and then cultured under the condition of 5% CO2, 37° C. for 24 hours. The synthetic example compound was pretreated from 30 minutes to 1 hour, and then a ROS stimulus was treated to each well comprising cells and a drug. After additional culturing for 48 hours, the level of ROS production was confirmed by using L-012 or DCF-DA.

N27 cells = assay: ROS production induced by MPP+ in N27 dopaminergic nerve cells (DCF-DA); format: cell-based, rat; settings: compound 1 μM, 24 hours, FIG. 4
Description: The high ROS level in nerve cells induces oxidized lipids, and this is known as an important element for nerve cell death. In order to confirm the effect of the synthetic example compound on ROS production from dopaminergic nerve cells, ROS production was induced by stimulation of MPP+(1-methyl-4-phenylptridinium) for N27 (rat dopaminergic neural cell, Sigma) cells, and the inhibitory effect of ROS production of the synthetic example compound was observed under this condition.
N27 cells were cultured in a RPMI medium comprising 10% FBS, […], and the cultured cells were aliquoted in a 6 well plate at a concentration of 5×10^3˜6×10^3 cells/well. The ROS production stimuli, MPP+ (1-methyl-4-phenylptridinium) and Synthetic example compound 3 (1 μM) were treated into the cells. In 24 hours after treating the synthetic example compound, by measuring fluorescence of each well using DCF-DA, the ROS production level was confirmed.

αSMA [6] = assay: Expression of αSMA induced by TGF-β1 in HFF-1 cells (immunocytochemistry); format: cell-based, human; settings: compound 5 μM, TGF-β1 10 ng/ml, FIG. 3a/3b
Description: as §2, §3

NHLF cells = assay: ROS production in NHLF cells (L-012 or DCF-DA); format: cell-based, human; settings: FIG. 1
Description: as §6, §7

αSMA [7] = assay: Expression of αSMA induced by TGF-β1 in ARPE19 cells (immunocytochemistry); format: cell-based, human; settings: compound 5 μM, TGF-β1 10 ng/ml, FIG. 3a/3b
Description: as §2
as §3, with “microscope. […]” for “microscope.”

Oc1c2c(nn1-c1ccccn1)CN(Cc1ccccc1)CC2 [Synthetic example 3, 6-benzyl-2-(pyridin-2-yl)-4,5,6,7-tetrahydro-2H-pyrazolo[3,4-c]pyridin-3-ol]
inhibition of IL-1β induced by LPS (IL-1β [1]): effectively inhibited in a concentration-dependent manner
inhibition of IL-1β induced by LPS (IL-1β [2]): effectively inhibited in a concentration-dependent manner
inhibition of increase of expression of αSMA induced by TGF-β1 (αSMA [3]): significantly inhibited
inhibition of expression of the CTGF gene (CTGF gene): 76%
inhibition of increase of expression of αSMA induced by TGF-β1 (αSMA [4]): significantly inhibited
inhibition of expression of the collagen type I gene (collagen type I gene): 75%
inhibition of increase of expression of αSMA induced by TGF-β1 (αSMA [5]): significantly inhibited
inhibition of ROS production induced by PMA (LX-2 cells): inhibited ROS production
inhibition of ROS production induced by MPP+ (N27 cells): inhibiting production of ROS
inhibition of increase of expression of αSMA induced by TGF-β1 (αSMA [6]): significantly inhibited
inhibition of ROS production induced by PMA (NHLF cells): inhibited ROS production
inhibition of increase of expression of αSMA induced by TGF-β1 (αSMA [7]): significantly inhibited
